Reference: US20100285443A1, “Diagnostic Methods for Diseases Caused by a HPV Infection Comprising Determining the Methylation Status of the HPV Genome” (OncoMethylome Sciences SA, priority 2006, published 2010)

Columns and labels:
[1] = test system: E2-binding sites at the URR region; assay: Chromatin immunoprecipitation (ChIP) of E2 viral protein at the E2-binding sites of the URR; format: cell-based; conditions: after induced hypomethylation of the E2-binding sites
From the text: (§1) The described HPV16 DNA methylomes also reflect the proposed expression patterns of the virus in cervical tumorigenesis, characterized by a significant overexpression of E6 and E7 in the carcinomas. […] This event is particularly observed for the E1/E2 region. The protein E2 is an inhibitor of cell proliferation by regulating the viral URR, repressing the E6 and E7 oncoproteins and ultimately causing cell cycle arrest at G2 (Frattini 1997 EMBO J). Thus, the genomic loss of E2 could contribute to the progression of the disease. […] We observe instead methylation of the E2-binding sites at the URR region that are associated with high level of expression of the oncoproteins E6 and E7. Most important, we show by chromatin immunoprecipitation (ChIP) that the E2 viral protein cannot bind to the methylated E2-binding sites at the URR region, and thus leads to E6 and E7 overexpression.

[2] = test system: E6 and E7; assay: Expression of HPV-16 E6 and E7 oncoproteins (Western blotting); format: cell-based, HPV16; conditions: after induced hypomethylation of the E2-binding sites
From the text: The detection of the expression of viral oncogenic proteins was realized by Western blotting technique using commercially available antibodies, raised against E6 and E7.
as §1

[3] = test system: HPV16 genome; assay: DNA methylation of the HPV16 genome (bisulfite genomic sequencing); format: cell-based
From the text: To determine the methylation pattern of all […] genes, Bisulfite Genomic Sequencing and Methylation-specific PCR (MSP) were used. Essentially, both detection methods use the C to T conversion by bisulfite when the cytosine is not methylated. The Primers used are described in Table 1 (Bisulfite genomic sequencing—SEQ ID NOs 1 to 42) and Table 2 (Methylation-specific PCR—SEQ ID NOs 43 to 46).
Thus, the viral genome is methylated by the host human cellular DNMTs. Because the integration of HPV16 in the human genome occurs in most cervical tumors and a significant proportion of premalignant lesions, we can consider that human DNMTs might recognize these sequences as “foreign” DNA that needs to be methylated. Indeed in our study, we have confirmed by FISH analyses that the HPV16 genome is integrated in the host cell DNA in CaSki and SiHa.
The described HPV16 DNA methylomes also reflect the proposed expression patterns of the virus in cervical tumorigenesis, characterized by a significant overexpression of E6 and E7 in the carcinomas. […] This event is particularly observed for the E1/E2 region. The protein E2 is an inhibitor of cell proliferation by regulating the viral URR, repressing the E6 and E7 oncoproteins and ultimately causing cell cycle arrest at G2 (Frattini 1997 EMBO J). Thus, the genomic loss of E2 could contribute to the progression of the disease. […]

## Nc1ncn([C@H]2C[C@H](O)[C@@H](CO)O2)c(=O)n1 [5-aza-2′-deoxycytidine]
[1]
  recruitment of E2 to its URR binding sites: recruitment of E2 to its URR binding sites
[2]
  E6 and E7 expression: marked reduction
[3]
  methylation of the E2-binding sites at the URR region: hypomethylation events
